In experiment [1] the target is T1, human somatostatin receptor 2 (Homo sapiens, UniProt P30874).
T1 construct: expressed in transfected cells; host or cells: CHO cells, clone SSTR2-HS5-9 (membrane fraction)
The experiment is described as follows: Measurement of the binding inhibition rate of 125I-somatostatin. The settings on record: membrane fraction of SSTR2-HS5-9 CHO cells; 125I-somatostatin-14; 25° C., 60 minutes; compound concentration not given. How it is done:
Measurement of the Binding Inhibition Rate of ^125I-Somatostatin
The receptor binding inhibition rate (%) of the subject compound was calculated using human.somatostatin receptor 2 expressing CHO cells and SSTR2-HS5-9 described in WO02/16350.
First, SSTR2-HS5-9 (1×10^9) was floated on a phosphate buffered saline supplemented with 5 mM EDTA (PBS-EDTA) and centrifuged. To the cell pellets was added 10 ml of a homogenate buffer for cells (10 mM NaHCO3, 5 mM EDTA, pH 7.5), which was homogenated using a Polytron homogenizer. The supernatant obtained by centrifugation at 400×g for 15 minutes was further centrifuged at 100,000×g for 1 hour to give a precipitate of the membrane fraction. The precipitates ere suspended in 2 ml of a buffer solution for assay [25 mM Tris-HCl, 1 mM EDTA (Ethylenediaminetetraacetic Acid), 0.1% BSA (Bovine Serum Albumin), 0.25 mM PMSF (Phenylmethylsulfonyl Fluoride), 1 μg/ml pepstatin, 20 μg/ml leupeptin, 10 μg/ml Phosphoramidone, pH 7.5], which was centrifuged at 100,000×g for 1 hour. The membrane fraction recovered as precipitates was suspended again in 20 ml of the buffer solution for assay, which was placed in tubes and stored at −80° C. The suspension was thawed and used at every use.
The thus-obtained membrane fraction of SSTR2-HS5-9 cells was diluted with a buffer solution for assay [25 mM Tris-HCl, 1 mM EDTA (Ethylenediaminetetraacetic Acid), 0.1% BSA (Bovine Serum Albumin), 0.25 mM PMSF (Phenylmethylsulfonyl Fluoride), 1 μg/ml pepstatin, 20 μg/ml leupeptin, 10 μg/ml Phosphoramidone, pH 7.51 to adjust the concentration to 3 μg/ml. The diluate was placed in tubes each in quantity of 173 μl. To this were simultaneously added 2 μl of a solution of a subject compound in DMSO and 25 μl of a 200 pM radioisotope-labeled somatostatin-14 (^125I-somatostatin-14: Amersham). For measurement of the maximum binding, a reaction mixture added with 2 μl of DMSO and 25 μl of a 200 pM ^125I-somatostatin was prepared. For measurement of non-specific binding, a reaction mixture added with 2 μl of a 100 μm somatostatin solution in DMSO and 25 μl of a 200 pM ^125I-somatostatin-14 solution was prepared at the same time. The mixtures were allowed to react at 25° C. for 60 minutes. Then, the reaction mixture was filtered by aspiration using a Whatman glass filter (GF-B) treated with polyethylenimine. After filtration, the radioactivity of ^125I-somatostatin-14 remaining on the filter paper was measured by a γ-counter. The binding inhibition rate (%) of each subject compound was calculated by the following formula: (TB−SB)/(TB−NSB)×100 • SB: radioactivity when a subject compound was added • TB: maximum binding radioactivity • NSB: non-specific binding radioactivity

A further experiment has as its system glucagon secretion. In words: Glucagon secretion inhibitory activity test (rat). It counts as in vivo. The settings on record: SD rats, male, fasted; 3 mg/kg body weight orally; insulin 2 U/kg s.c. 120 minutes later; plasma glucagon 30 minutes after insulin. How it is done: Glucagon Secretion Inhibitory Activity Test (Rat)
A 0.5% methylcellulose suspension containing the subject compound (3 mg/kg body weight) (compound administration group) or a 0.5% methylcellulose suspension (compound non-administration group) was orally administered to SD rats (male, 7 weeks of age) after fasting overnight, and 120 minutes later, insulin (2 U/kg body weight, Novo Nordisk) was subcutaneously administered. After 30 minutes from the insulin administration, the blood was drawn from the vein of eyegrounds of the rats using capillary, and blood plasma was separated by centrifugation. The concentration of glucagon in the obtained blood plasma was measured by radioimmunoassay using a Daiichi glucagon kit (Daiichi Isotope). As a non-treated group, the concentration of glucagon in the blood plasma of rat of the compound non-administration group free of insulin administration was measured in the same manner as above. […]

The structures appear in SMILES notation.

T1 sequence (P30874 whole entry): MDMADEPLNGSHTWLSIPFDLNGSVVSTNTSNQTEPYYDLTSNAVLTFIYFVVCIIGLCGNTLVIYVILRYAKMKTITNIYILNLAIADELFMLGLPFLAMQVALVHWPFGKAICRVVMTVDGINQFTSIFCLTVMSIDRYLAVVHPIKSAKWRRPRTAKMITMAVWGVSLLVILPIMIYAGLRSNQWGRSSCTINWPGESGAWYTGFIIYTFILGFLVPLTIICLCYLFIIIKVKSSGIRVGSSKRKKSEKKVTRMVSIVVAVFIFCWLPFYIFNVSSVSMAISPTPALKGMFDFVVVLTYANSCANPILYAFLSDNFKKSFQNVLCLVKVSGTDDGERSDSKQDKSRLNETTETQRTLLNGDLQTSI

Turning to `C[C@@H](c1c[nH]c2ccccc12)[C@@H](NC(=O)N1CCC(Oc2ccc(F)cc2)CC1)C(=O)Nc1cccc(CN(C)C)c1` [Example 2, N-( (1R,2S)-1-( ((3-((dimethylamino)methyl)phenyl)amino)carbonyl)-2-(1H-indol-3-yl)propyl)-4-(4-fluorophenoxy)-1-piperidinecarboxamide], in experiment [1], the “binding inhibition rate (%)” value turned out to be 100%.

In the case of `C[C@@H](c1c[nH]c2ccccc12)[C@@H](NC(=O)N1CCC(c2ccccc2)CC1)C(=O)Nc1cccc(CN(C)C)c1` [Example 1, N-((1R,2S)-1-(((3-((dimethylamino)methyl)phenyl)amino)carbonyl)-2-(1H-indol-3-yl)propyl)-4-phenyl-1-piperidinecarboxamide], the “glucagon secretion (% of control)” value in the experiment on glucagon secretion was 9.5 % of control. The “binding inhibition rate (%)” value in experiment [1] is given as 98%.

For the molecule `CCOc1ccc(CN(C)C)cc1NC(=O)[C@H](NC(=O)N1CCN(c2ccc(F)cc2)CC1)[C@@H](C)c1c[nH]c2ccccc12` [Example 67, N-((1R,2S)-1-(((5-((dimethylamino)methyl)-2-ethoxyphenyl)amino)carbonyl)-2-(1H-indol-3-yl)propyl)-4-(4-fluorophenyl)-1-piperazinecarboxamide], the “binding inhibition rate (%)” value in experiment [1] was determined as 96%.

With `CCOc1ccc(CN(C)C)cc1NC(=O)[C@H](NC(=O)N1CCC(c2ccccc2)CC1)[C@@H](C)c1c[nH]c2ccccc12` [Example 54, N-((1R,2S)-1-(((5-((dimethylamino)methyl)-2-ethoxyphenyl)amino)carbonyl)-2-(1H-indol-3-yl)propyl)-4-phenyl-1-piperidinecarboxamide], the “binding inhibition rate (%)” value in experiment [1] was determined as 100%.

The values are drawn from patent US20060223826A1, “Indole derivatives as somatostatin agonists or antagonists” (Takeda Pharmaceutical Company Limited Intellectual Property …, priority 2002, published 2006).
